From ChEMBL document CHEMBL3639213, “2,5-disubstituted piperidine orexin receptor antagonists” (2014) come the findings set out here.

The target in the assay is T1, Orexin/Hypocretin receptor type 1 (Rattus norvegicus, UniProt P56718).
T1 sequence (P56718 whole entry): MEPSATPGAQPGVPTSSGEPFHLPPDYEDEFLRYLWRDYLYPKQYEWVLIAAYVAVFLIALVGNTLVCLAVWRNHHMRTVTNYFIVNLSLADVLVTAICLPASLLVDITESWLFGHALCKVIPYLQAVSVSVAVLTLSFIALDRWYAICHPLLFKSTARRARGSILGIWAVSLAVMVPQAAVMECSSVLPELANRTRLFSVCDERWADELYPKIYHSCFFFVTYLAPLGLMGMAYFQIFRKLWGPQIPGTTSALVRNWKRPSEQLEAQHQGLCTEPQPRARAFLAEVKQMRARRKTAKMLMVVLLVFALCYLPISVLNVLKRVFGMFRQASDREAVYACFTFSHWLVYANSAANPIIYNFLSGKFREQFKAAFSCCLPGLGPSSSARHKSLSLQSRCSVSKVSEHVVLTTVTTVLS
As to the kind of experiment: Radioligand Binding Assay: Compound potency can be assessed by a radioligand binding assay (described in Bergman et. al. Bioorg. Med. Chem. Lett. 2008, 18, 1425-1430) in which the inhibition constant (Ki) is determined in membranes prepared from CHO cells expressing either the orexin-1 (OX1) or orexin-2 (OX2) receptor. The format is cell membranes.

A word on the Ki: it is a measure of affinity in units of concentration, obtained from inhibition or displacement. High values mean lower affinity, low ones higher affinity. `C[C@@H]1CC[C@@H](Oc2ccnc3c(F)cccc23)CN1C(=O)c1ccccc1-n1nccn1`: the Ki came out at 560 nM. In the case of `C[C@@H]1CC[C@@H](Oc2cccc3ocnc23)CN1C(=O)c1ccccc1-n1nccn1` it was 1300 nM; in that of `Cc1ccc(-n2nccn2)c(C(=O)N2C[C@H](Nc3nccc4ccccc34)CC[C@H]2C)c1`, 3.25 nM.
